Values quoted from earlier work, collected in US20060062853A1 (Medical Research Institute, priority 2004, published 2006).

Key:
[1] = such as juices
[2] = not given; remark: listed apart in the source

half-life in blood plasma: 1 to 1.5 h
stability in acidic solutions [1]: not stable
creatine lost from the cell ([2]; 70 kg male): approximately 2 grams per day
loss of creatine from skeletal muscle ([2]; skeletal muscle): about 3 % per day
Structure (SMILES): CN(CC(=O)O)C(=N)N [creatine, N-(aminoiminomethyl)-N-methylglycine]
